Test results: ChEMBL document CHEMBL1125608, “Synthesis and biological activity of angiotensin II analogues containing a Val-His replacement, Val psi[CH(CONH2)NH]His” (J Med Chem, 1991)
Peptide text beside a SMILES is read from it. * marks the point of attachment. Propanoyl(3-(4-MeO-Ph)) = COc1ccc(CCC(=O)*)cc1; Desaminotyrosyl = O=C(CCc1ccc(O)cc1)*; Cbz = O=C(OCc1ccccc1)*

Tests used:
Cavia porcellus = species: Cavia porcellus; test: The compound was tested for its inhibitory activity as antagonist of AI on guinea pig ileum; format: functional, organism-based
[1] = target: Angiotensin II receptor (Cavia porcellus); test: Inhibitory activity as antagonist of AII on guinea pig ileum
[2] = system: Angiotensin II receptor (Oryctolagus cuniculus); test: Displacement of [3H]Angiotensin II (300 ng/mL) from rabbit adrenal cortex
[3] = target: Angiotensin II receptor (Cavia porcellus); test: The compound was tested for its inhibitory activity as antagonist of AII on guinea pig ileum

Structure (SMILES)	IC50 (Cavia porcellus) [nM]	IC50 [1] [nM]	Displacement [2] [%]	IC50 [3] [nM]
CC[C@H](C)[C@H](NC(=O)[C@H](Cc1ccc(O)cc1)NC(=O)[C@@H](NC(=O)[C@H](CCCN=C(N)N)NC(=O)CNC)C(C)C)C(=O)N[C@@H](Cc1c[nH]cn1)C(=O)N1CCC[C@H]1C(=O)N[C@@H](C)C(=O)O	0.56	–	–	–
CC[C@H](C)[C@H](NC(=O)[C@@H]1CCCN1C(=O)[C@H](Cc1c[nH]cn1)N[C@H](C(N)=O)[C@@H](NC(=O)[C@H](Cc1ccc(O)cc1)NC(=O)[C@@H](NC(=O)[C@H](CCCN=C(N)N)NC(=O)CNC)C(C)C)C(C)C)C(=O)O	345	330	–	–
CC[C@H](C)[C@H](NC(=O)[C@@H]1CCCN1C(=O)[C@H](Cc1c[nH]cn1)NC(=O)[C@@H](NC(=O)[C@H](Cc1ccc(O)cc1)NC(=O)[C@@H](NC(=O)[C@H](CCCN=C(N)N)NC(=O)CNC)C(C)C)C(C)C)C(=O)O	0.51	0.45	100	–
CC[C@H](C)[C@H](NC(=O)[C@@H]1CCCN1C(=O)[C@H](Cc1c[nH]cn1)NC(=O)[C@@H](NC(=O)CCc1ccc(OC)cc1)C(C)C)C(=O)O ({Propanoyl(3-(4-MeO-Ph))}-VHPI-OH)	> 15000	> 15000	0	–
CC[C@H](C)[C@H](NC(=O)[C@@H]1CCCN1C(=O)[C@H](Cc1c[nH]cn1)NC(=O)[C@@H](NC(=O)CCc1ccc(O)cc1)C(C)C)C(=O)O (Desaminotyrosyl-VHPI-OH)	> 15000	> 15000	0	–
CC[C@H](C)[C@H](NC(=O)[C@@H]1CCCN1C(=O)[C@H](Cc1c[nH]cn1)NC(=O)[C@@H](NC(=O)OCc1ccccc1)C(C)C)C(=O)O (Cbz-VHPI-OH)	> 15000	> 15000	10	–
CNCC(=O)N[C@@H](CCCNC(=N)N)C(=O)N[C@H](C(=O)N[C@@H](Cc1ccc(O)cc1)C(=O)N[C@H](C(=O)N[C@@H](Cc1cnc[nH]1)C(=O)N1CCC[C@H]1C(=O)N[C@@H](C)C(=O)O)C(C)C)C(C)C [SARALASIN]	0.048	–	–	–
CC[C@H](C)[C@H](NC(=O)[C@@H]1CCCN1C(=O)[C@H](Cc1c[nH]cn1)NC(=O)[C@@H](NC(=O)[C@H](Cc1ccc(O)cc1)NC(=O)[C@@H](NC(=O)[C@H](CCCN=C(N)N)NC(=O)CNC)C(C)C)[C@@H](C)CC)C(=O)O	0.17	–	–	–
CC[C@H](C)[C@H](NC(=O)[C@@H]1CCCN1C(=O)[C@H](Cc1c[nH]cn1)NC(C(N)=O)[C@@H](NC(=O)OCc1ccccc1)C(C)C)C(=O)O (some centres undefined)	> 15000	–	–	> 15000
